Reference: patent US8729120B2, “Adjunctive therapy for depression” (SK Biopharmaceuticals Co., Ltd., priority 2004, dated 2014)

Legend:
Format in all cases: in vivo
[1] = system: Mice; assay: Forced-Swim Test (FST) in Mice
[2] = system: humans; assay: Placebo controlled study in humans, change in total MADRS (ITT, LOCF); details: for Change from Baseline in total MADRS, Mean (SD): ITT LOCF, depression rating scale
[3] = system: Mice; assay: Tail Suspension in Mice
[4] = system: Rats; assay: Forced-Swim Test (FST) in Rats
[5] = system: Mice; assay: Reversal of Isolation-Induced Aggression in Mice
[6] = system: Mice; assay: Tetrabenazine Reversal in Mice
[7] = system: Mice; assay: Reserpine Reversal in Mice

Compound	antidepressant effects [1]	Change from Baseline in total MADRS, Mean (SD) ([2]; 200 mg)	Change from Baseline in total MADRS, Mean (SD) ([2]; 400 mg)	decrease in depression rating scores (MADRS) compared to placebo and paroxetine ([2]; Table 1)	antidepressant effects in large placebo controlled study ([2]; compared with Paroxetine)	antidepressant effects [3]	antidepressant effects [4]	antidepressant effects [5]	antidepressant effects [6]	antidepressant effects [7]	Change from Baseline in total MADRS, Mean (SD) ([2]; 20 mg)
Cl.NC(=O)OC[C@H](N)Cc1ccccc1 [Test Compound, (R)-(beta-amino-benzenepropyl) carbamate monohydrochloric acid]	demonstrated antidepressant effects	−12.1 (11.12)	−12.4 (11.12)	greater decrease in depression rating scores (MADRS) as compared to placebo but not as great as the active control, paroxetine	significant antidepressant effects	demonstrated antidepressant effects	demonstrated antidepressant effects	demonstrated antidepressant effects	demonstrated antidepressant effects	demonstrated antidepressant effects	
Fc1ccc([C@@H]2CCNC[C@H]2COc2ccc3c(c2)OCO3)cc1 (relative stereo) [Paroxetine, trans-(−)-3-[(1,3-benzodioxol-5-yloxy)methyl]-4-(4-fluorophenyl)piperidine, reference compound]											−14.1 (10.71)
